Laboratory results: patent publication US10238631B2, “Sesquiterpene derivatives and their use in inflammation or cancer treatment” (Academia Sinica, priority 2014, dated 2019)
Several values for one entry are separate records, joined by “and”; a condition that tells them apart may be missing. Equal values may be shown once. Read-outs that look alike come from different tables or passages of the source.

What was measured:
MDA-MB-231 cells [1] = system: MDA-MB-231 cells
Protocol: Briefly, cells (5×10^3 cells/well) were seeded in 96-well plates and treated with BSO at concentrations 100 μM, 45 μM, 18 μM, 7.2 μM, 2.8 μM, 1.15 μM, 461 nM, 184 nM, 74 nM and 29 nM, and sulfasalazine at concentrations 62.75 μM, 25.10 μM, 10 μM, 4 μM, 1.6 μM, 642 nM, 257 nM, 102 nM, 41 nM and 16.4 nM for 30 h, and then 12 μM DET or 3 μM DETD-35 were added in the cultural medium to treat the cells for another 24 h. Cell proliferation was measured by MIT assay.

[2] = system: TS/A (ER+, Her2−) murine mammary cancer cells; assay: MTT cell viability assay, TS/A cells; type: cell-based; conditions: Mus musculus
How it was run: (§1)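 Cells (2×10^3 to 1×10^4 cells/well) were seeded overnight, then exposed to compounds for 24 h to 72 h. Growth was measured by MTT colorimetric assay, with viability calculated as OD570 of treated over vehicle (0.5% DMSO) control ×100.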

[3] = system: MDA-MB-231 (ER−, PR−, Her2−) human breast cancer cells; assay: MTT cell viability assay, MDA-MB-231 cells; type: cell-based; conditions: for IC50: Homo sapiens
How it was run: as §1

[4] = system: MCF-7 (ER+, Her2−) human breast cancer cells; assay: MTT cell viability assay, MCF-7 cells; type: cell-based
How it was run: as §1

[5] = system: M10 normal mammary epithelial cells; assay: MTT cell viability assay, M10 normal cells; type: cell-based, human; conditions: 24 h
How it was run: as §1

B16-F10 (NRAS mutation) = assay: MTT cell viability assay, B16-F10 melanoma; type: cell-based; conditions: Mus musculus, B16-F10, 24 h
How it was run: (§2)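 Cells seeded at 2×10^3 to 1×10^4 cells/well overnight, then exposed to compounds for 24 h to 72 h. Growth measured by MTT colorimetric assay; viability expressed as OD570 treated/OD570 vehicle (0.5% DMSO) ×100.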

[6] = system: MeWo (No NRAS or BRAF mutation); assay: MTT cell viability assay, MeWo melanoma; type: cell-based, human; conditions: Homo sapiens, MeWo, 24 h
How it was run: as §2

HTB-68 (NRAS mutation) = assay: MTT cell viability assay, HTB-68 melanoma; type: cell-based, human; conditions: Homo sapiens, 24 h
How it was run: as §2

A2058 (BRAF mutation) = assay: MTT cell viability assay, A2058 melanoma; type: cell-based, human; conditions: Homo sapiens, A2058, 24 h
How it was run: as §2

A375 (BRAF mutation) = assay: MTT cell viability assay, A375 melanoma; type: cell-based, human; conditions: Homo sapiens, MTT
How it was run: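 A375 cells were seeded at 2×10^3 to 1×10^4 per well overnight and then exposed to compounds for 24 h to 72 h. Viability was measured by MTT absorbance at OD570 relative to 0.5% DMSO vehicle (100%), and IC50 was derived from it. Combination with PLX4032 was scored by combination index.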

[7] = system: Melanocyte (Normal cells); assay: MTT cell viability assay, normal melanocytes; type: cell-based, human; conditions: Homo sapiens, Melanocyte, 24 h
How it was run: as §2

[8] = system: RAW264.7 (normal macrophage); assay: MTT cell viability assay, RAW264.7 macrophages; type: cell-based, mouse; conditions: Mus musculus, RAW264.7, 24 h
How it was run: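 RAW264.7 macrophages (2×10^5 cells/well) pretreated with compounds 1 h, then incubated 24 h with or without 100 ng/μL LPS. Viability by MTT colorimetric assay run in parallel with Griess nitrite measurement.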

[9] = system: LPS-induced nitric oxide (NO) production in RAW 264.7 cells; assay: Nitric oxide production in LPS-stimulated macrophages (Griess); type: cell-based, mouse
How it was run: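 RAW 264.7 macrophages (2×10^5 cells/well) were pretreated with compound for 1 h and then stimulated with 100 ng/μL LPS for 24 h. NO was measured as nitrite in the medium by the Griess reaction. Viability was checked in parallel by MTT.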

[10] = system: U-87MG brain cancer cell line; assay: MTT cell viability assay, U-87MG; type: cell-based; conditions: Homo sapiens, 24 h
Protocol: (§3) Normal or cancer cells (2×10^3 to 1×10^4 cells/well) were seeded in 96-well plate for overnight and treated with different compounds for 24 h to 72 h. Cells growth were determined by MTT-based colorimetric assays according to. Viability of the test cells treated with vehicle (0.5% DMSO) only was defined as 100% viable. Survival of cells after treatment with DETDs was calculated using the following formula: viable cell number (%)=OD570 (treated cell culture)/OD570 (vehicle control)×100.
(§4) Based on toxicity results of DET and DETDs on different breast cancer and melanoma cell lines, we selected DETD-6, -32, -35 and -39, under the consideration of structure activity relationship for evaluating their suppression effect against other cancer types of cell line with indicated tumor origin in Table 5. […] The cells were treated with compounds for 24 h and then subjected to MTT assays.

[11] = system: PC6 lung cancer cell line; assay: MTT cell viability assay, PC6; type: cell-based; conditions: 24 h
Protocol: as §3, §4

U937 lymphoma line = assay: MTT cell viability assay, U937; type: cell-based; conditions: Homo sapiens, U-937, 24 h
Protocol: as §3, §4

[12] = system: SK-N-MC neuroepithelioma line; assay: MTT cell viability assay, SK-N-MC; type: cell-based; conditions: Homo sapiens, 24 h
Protocol: as §3, §4

[13] = system: A498 kidney cancer cell line; assay: MTT cell viability assay, A498; type: cell-based; conditions: Homo sapiens, 24 h
Protocol: as §3, §4

PC3 (Prostate) = assay: MTT cell viability assay, PC3; type: cell-based; conditions: 24 h
Protocol: as §3, §4

[14] = system: KATO III stomach cancer cell line; assay: MTT cell viability assay, KATO III; type: cell-based; conditions: Homo sapiens, 24 h
Protocol: as §3, §4

[15] = system: HCT-116 colon cancer cell line; assay: MTT cell viability assay, HCT-116; type: cell-based; conditions: Homo sapiens, 24 h
Protocol: as §3, §4

[16] = system: NES-SA uterus cancer cell line; assay: MTT cell viability assay, NES-SA; type: cell-based; conditions: 24 h
Protocol: as §3, §4

MDA-MB-231 cells [17] = assay: Compound-drug combination assay with PTX; type: cell-based, human; conditions: 0-4 μM compound, 0-25 nM PTX
Protocol: Cell proliferation was measured by MTT assay. Isobologram analysis and Chou-Talalay method was used to determine the effects of compound drug combinations. The interaction of DETDs and PLX4032 or PTX was determined by the combination index (CI), and the CI plot was generated using CompuSyn software. The combined effects of two compounds can be categorized as follows: CI=1 indicates additive interaction, CI<1 indicates synergism, and CI>1 indicates antagonism.
To investigate whether or not DETD-35 and DETD-39 act synergistically with PTX against MDA-MB-231 cell activity, anti-proliferation assay using MTT reagent was performed to obtain the IC60 value of each compound. […] Based on the IC60 values, DETD-35 or DETD-39 ranging from 0 to 4 μM and PIX from 0 to 25 nM were used for compound-drug combination study. Classic isobologram analysis and Chou-Talalay method were conducted to investigate the synergistic effect of compound and drug. Combination index (CI) was calculated with CalcuSyn software (Version 2.0, Biosoft) and expressed as CI vs. Fa (fraction affected). CI<1 indicates synergy; CI=1 indicates additive effect; and CI>1 indicates antagonism.

[18] = system: melanoma cell lines B16-F10, MeWo, A375, A2058, HTB-68; assay: MTT cell viability assay, all melanoma cell lines; type: cell-based; conditions: 24 h, read-out: IC50 values over all types of melanoma cell lines
Protocol: as §3
Several genes are involved in melanoma development and pathology; specifically, mutation in V-raf murine sarcoma viral oncogene homolog B1 (B-RAF) occurs approximately 50-60% and in neuroblastoma RAS viral oncogene homolog (N-RAS) occurs about 30% of malignant melanomas. A spectrum of wild-type or mutated melanoma cell lines including B16-F10, MeWo, A375, A2058, HTB-68, and melanocyte were used to study anti-melanoma cell proliferation activity of parental phytocompound DET and newly synthesized DETDs.

[19] = system: A375-R acquired vemurafenib resistance melanoma cells; assay: MTT cell viability assay, PLX4032-resistant A375-R; type: cell-based, human; conditions: 72 h
Protocol: A375-R, acquired vemurafenib resistance melanoma cell was generated from A375 parental cell and grown in same conditions as A375 cell.
as §3
To study the mechanisms underlying how DETD-35 overcomes acquired resistance to BRAF inhibitor, we generated A375 cell line resistant to PLX4032 (designated A375-R). Briefly, A375 melanoma cells were seeded in T75 plate and treated with ascending concentration of PLX4032 (20, 50, 100, 250, 500, 1000, 2000 nM) through approximately 2 months and 20 passages.

[20] = system: A375 human melanoma tumor; assay: A375 melanoma xenograft model in NOD/SCID mice; type: in vivo, mouse; conditions: 20 mg/kg i.p.; PLX4032 every day, DET and DETD-35 every two days
Protocol: (§5) A375 and A375-R melanoma cells (3×10^6) were injected subcutaneously to the flanks of the six weeks old NOD/SCID mice. One week after the inoculation, the mice were randomized into treated groups (n=8 per group) and the treatments were started. Body weight and tumor volume of the mice were recorded every three days using formula a×b^2×0.5, where a and b represented the larger and smaller tumor diameters.
We used A375 human melanoma xenograft model to evaluate the in vivo bioefficacy of DET. DETD-35, PLX4032 and compound drug combination. […] For single compound or drug treatment group, PLX4032 was administered i.p. every day and DET and DETD-35 were administered i.p. every two days. For combination treatment, PLX4032 was administered every two days while DET and DETD-35 were administered every four days. […] Compound-drug combinational treatments were carried out with alternative administration of DET (20 mg/kg) or DETD-35 (20 mg/kg) and PLX4032 (20 mg/kg) by which DET or DETD-35 and PLX4032 treatment frequency were only half of the single compound or drug administration alone.

[21] = system: A375-R PLX4032-resistant melanoma tumor; assay: A375-R melanoma xenograft model in NOD/SCID mice; type: in vivo, mouse; conditions: PLX4032 75 mg/kg
Protocol: as §5
To study whether or not DETD-35 could overcome acquired resistance to BRAF inhibitor, we generated A375 cell line resistant to PLX4032 (designated A375-R) as described above. We then conducted A375-R orthotopic xenograft study.

[22] = system: DMBA/TPA-induced skin papillomas accelerated by PLX4032
Protocol: Dorsal skin of six weeks old female FVB/N mice were shaved and treated with topical application of DMBA (25 μg in 100 μL acetone). One week after DMBA treatment, the same skin area were treated topically twice weekly with 12-O-tetradecanoylphorbol-13-acetate (TPA) (4 μg in 100 μL acetone). The area was regularly shaved and tumor formation was assessed twice weekly, and tumors were defined as raised lesions of a minimum diameter of 1 mm.

[23] = DMBA/TPA + PLX4032 20 mg/kg i.p. twice per week

SMILES: CCCCS(=N)(=O)CCC(N)C(=O)O (stereo not shown) [BSO, buthionine sulfoximine]
- cytotoxicity of blocker alone (MDA-MB-231 cells [1]): did not show any cytotoxicity

SMILES: O=C(O)c1cc(/N=N/c2ccc(S(=O)(=O)Nc3ccccn3)cc2)ccc1O [sulfasalazine]
- cytotoxicity of blocker alone (MDA-MB-231 cells [1]): did not show any cytotoxicity

SMILES: C=C1C(=O)OC2CC3=C[C@@H](C/C(C)=C/C(OC(=O)/C=C/c4cccc(OC)c4)[C@H]12)OC3=O (stereo partly shown) [DETD-39]
- IC50 ([2]; 24 h, read-out: IC50 on cell viability, TS/A (ER+, Her2−)): 0.8 µM
- IC50 ([2]; Table 5, 24 h, read-out: IC50 viability TS/A (mouse) (Breast)): 0.8 µM
- IC60 on MDA-MB-231 cells ([3]; 24 h): 3.79 µM
- IC50 ([3]; MDA-MB-231, 24 h, read-out: IC50 on cell viability, MDA-MB-231 (ER−, PR−, Her2−)): 1.9 µM
- IC50 ([3]; MDA-MB-231, Table 5, 24 h, read-out: IC50 viability MDA-MB-231 (Breast)): 1.9 µM
- IC50 ([4]; MCF7, 24 h, read-out: IC50 on cell viability, MCF-7 (ER+, Her2−)): 2.1 µM
- IC50 ([4]; MCF7, Table 5, 24 h, read-out: IC50 viability MCF-7 (Breast)): 2.4 µM
- IC50 on cell viability, M10 (normal) [5]: some toxicity
- IC50 ([5]; Homo sapiens, Epithelial cell): 3.7 µM
- IC50 (B16-F10 (NRAS mutation); 24 h, read-out: IC50 on cell viability, B16-F10 (NRAS mutation)): 1.7 µM
- IC50 (B16-F10 (NRAS mutation); Table 5, 24 h, read-out: IC50 viability B16-F10 (mouse) (Skin)): 1.7 µM
- IC50 [6]: 3.5 µM
- IC50 (HTB-68 (NRAS mutation)): 3.2 µM
- IC50 (A2058 (BRAF mutation)): 2.4 µM
- IC50 (A375 (BRAF mutation); A-375, 24 h, 24 h, read-out: IC50 on cell viability, A375 (BRAF mutation)): 1.6 µM
- IC50 [7]: 9 µM
- IC50 [8]: 3.5 µM
- fold decrease in IC50 of NO production vs DET [9]: 3 fold
- IC50 ([9]; Mus musculus, LPS-stimulated RAW264.7, nitrite 24 h after LPS): 1 µM
- IC50 [10]: 0.15 µM
- IC50 [11]: 0.11 µM
- IC50 (U937 lymphoma line): 0.1 µM
- IC50 [12]: 0.11 µM
- IC50 [13]: 0.48 µM
- IC50 (PC3 (Prostate)): 2.6 µM
- IC50 [14]: 0.29 µM
- IC50 [15]: 0.1 µM
- IC50 [16]: 0.14 µM
- combination effect with PTX (isobologram, combination index) (MDA-MB-231 cells [17]): acted synergistically
- IC50 [18]: 1.6 to 9.9 µM and 1.6 to 3.5 µM

SMILES: CCCS(=O)(=O)Nc1ccc(F)c(C(=O)c2c[nH]c3ncc(-c4ccc(Cl)cc4)cc23)c1F [PLX4032, Vemurafenib]
- IC50 (A375 (BRAF mutation); A-375, 72 h, 72 h, read-out: IC50 on A375 cells): 0.07 µM
- fold less sensitive, A375-R vs parental A375 [19]: more than 100 fold
- IC50 ([19]; Homo sapiens, MTT): 8.3 µM
- reduction of tumor mass vs tumor control [20]: 71.9%
- tumor growth rate and size relative to control group (100%) [21]: 98%
- start of papillomas formation ([22]; DMBA-TPA treated mice + PLX4032, without PLX4032 week 6 to 7): 3 to 4 weeks
- papillomas size in average [22, 23]: 77.6 mm^3
- total papillomas number [22, 23]: 25.6
